Values after ≈ are worked out from the molar mass of the structure shown.
How the values were obtained:
Test in all cases: In vitro antibacterial evaluation: minimum inhibitory concentration (MIC), broth dilution method
Type in all cases: cell-based
[1] = test system: Staphylococcus sp.; details: 18 hours at 35° C.
Summary of the method: (§1)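 Following NCCLS approved standard M7-A2, compounds are serially diluted from 64 to 0.06 μg/mL in Muller-Hinton II […] and inoculated at 5×10^5 CFU/mL; the MIC is the minimum concentration at which growth is inhibited.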

[2] = test system: Escherichia coli; details: Escherichia coli (GC 4560); 18 hours at 35° C.
Summary of the method: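 An MIC is reported for each organism as the least concentration giving inhibition, using broth dilution over 64-0.06 μg/mL with a 5×10^5 CFU/mL inoculum.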

[3] = test system: Streptococcus sp.; details: 18 hours at 35° C.
Summary of the method: as §1

[4] = test system: Enterococcus sp.; details: 18 hours at 35° C.
Summary of the method: as §1

[5] = broth dilution, inoculum 5×10^5 CFU/mL

MIC Coagulase Negative Staphylococcus (GC 4547) ([1]; Coagulase Negative Staphylococcus (GC 4547)): 64 µg/mL (≈ 43.7 µM) | MIC Coagulase Negative Staphylococcus (GC 4548) ([1]; Coagulase Negative Staphylococcus (GC 4548)): 64 µg/mL (≈ 43.7 µM) | MIC Coagulase Negative Staphylococcus (GC 4549) ([1]; Coagulase Negative Staphylococcus (GC 4549)): 64 µg/mL (≈ 43.7 µM) | MIC Coagulase Negative Staphylococcus (GC 4551) ([1]; Coagulase Negative Staphylococcus (GC 4551)): 64 µg/mL (≈ 43.7 µM) | MIC Coagulase Negative Staphylococcus (GC 6257) ([1]; Coagulase Negative Staphylococcus (GC 6257)): 32 µg/mL (≈ 21.8 µM) | MIC Staphylococcus aureus (GC 4541) ([1]; Staphylococcus aureus (GC 4541)): 64 µg/mL (≈ 43.7 µM) | MIC Staphylococcus aureus-SMITH (GC 4543) ([1]; Staphylococcus aureus-SMITH (GC 4543)): 64 µg/mL (≈ 43.7 µM) | MIC Escherichia coli (GC 4560) [2]: 32 µg/mL (≈ 21.8 µM) | MIC Streptococcus agalactiae (GC 4564) ([3]; Streptococcus agalactiae (GC 4564)): 32 µg/mL (≈ 21.8 µM) | MIC Streptococcus pneumoniae (ATCC 6301) ([3]; Streptococcus pneumoniae (ATCC 6301)): 32 µg/mL (≈ 21.8 µM) | MIC Streptococcus pneumoniae (GC 1894) ([3]; Streptococcus pneumoniae (GC 1894)): 16 µg/mL (≈ 10.9 µM) | MIC Streptococcus pneumoniae (GC 4565) ([3]; Streptococcus pneumoniae (GC 4565)): 32 µg/mL (≈ 21.8 µM) | MIC Streptococcus pyogenes (GC 4563) ([3]; Streptococcus pyogenes (GC 4563)): 64 µg/mL (≈ 43.7 µM) | MIC Streptococcus agalactiae (GC 4564) [3, 5]: 32 µg/mL (≈ 21.8 µM) | MIC Streptococcus pneumoniae (ATCC 6301) [3, 5]: 32 µg/mL (≈ 21.8 µM) | MIC Streptococcus pneumoniae (GC 1894) [3, 5]: 16 µg/mL (≈ 10.9 µM) | MIC Streptococcus pneumoniae (GC 4565) [3, 5]: 32 µg/mL (≈ 21.8 µM) | MIC Streptococcus pyogenes (GC 4563) [3, 5]: 64 µg/mL (≈ 43.7 µM) | MIC Enterococcus faecium (GC 4557) ([4]; Enterococcus faecium (GC 4557)): 32 µg/mL (≈ 21.8 µM) | MIC Enterococcus faecium (GC 4557) [4, 5]: 32 µg/mL (≈ 21.8 µM)
Compound: COc1ccc2cc(COC3C(OC4C(CO)OC(Oc5ccc(CC6NC(=O)C(C(C)c7ccccc7)NC(=O)CNC(=O)C(CO)NC(=O)C(C(O)C7CNC(=N)N7C7OC(CO)C(O)C(O)C7O)NC(=O)C(C(O)C7CNC(=N)N7)NC6=O)cc5)C(O)C4O)OC(CO)C(O)C3O)ccc2c1 (stereo not drawn) [Example 230c, Cyclo[glycyl-β-methylphenylalanyl-O-[4-O-[2-O-[(6-methoxy-2-naphthyl)methyl]hexopyranosyl]hexopyranosyl]tyrosyl-3-(2-iminoimidazolidin-4-yl)seryl-3-(3-hexopyranosyl-2-iminoimidazolidin-4-yl)serylseryl]]
MIC Staphylococcus haemolyticus (GC 4546) ([1]; Staphylococcus haemolyticus (GC 4546)): 64 µg/mL (≈ 43.7 µM)
